Patent US9663511B2, “Sphingosine 1-phosphate receptor antagonists” (ARROYO BIOSCIENCES, LLC, priority 2012, dated 2017)
Several values for one entry are separate records, joined by “and”; a condition that tells them apart may be missing. Identical values can stand only once. Like-named read-outs stand apart in the source and are kept apart here.

Columns and labels:
in vitro = details: mouse, microsomes, NADPH-dependent Clint (microsomal intrinsic clearance)
[1] = In vitro plasma protein binding; type: in vitro ADME, mouse
[2] = Blood concentrations and pharmacokinetics after 1 mg/kg i.v. in mice; type: in vivo, mouse; details: for pharmacokinetics / blood levels following intravenous injection in mice (in words): comparison between compounds
Procedure: 1 mg/kg of the compound was injected by IV and blood was withdrawn at the times in table 1. The amount of starting compound was quantified by a standard curve using MS/MS determinations.

S1P2 receptor = S1P2 receptor (Homo sapiens (Human), UniProt O95136); assay: Antagonist assay (FLIPR TETRA, inhibition of reference agonist EC80) on S1P2; type: cell-based; details: tested as the citrate salt
Procedure: (§1) Antagonist percentage inhibition determinations were obtained by assaying sample compounds and referencing the control (EC80) wells for each profiled (GPCR) which evaluated binding to S1P2 and S1P5 receptors. The samples were run using a single addition assay protocol. The protocol design is as follows.
(§2) Unless specified otherwise, the sample compounds were diluted in 100% anhydrous DMSO including all dilutions. The compounds were tested as the citrate salt (1 equivalent per molecule). If the sample compound is provided in a different solvent all master stock dilutions are performed in the specified solvent. All control wells contained identical solvent final concentrations as the sample compound wells.
(§3) The sample compounds were transferred from a master stock solution into a daughter plate that was used in the assay. Each sample compound was diluted into an assay buffer (1×HBSS with 20 mM HEPES, 2.5 mM Probenecid, and 0.4% Free Fatty Acid BSA) at an appropriate concentration to obtain final specified concentrations.
(§4) Using the EC80 values that were determined real-time, stimulated all pre-incubated sample compounds and reference antagonists (if applicable) were compared with the EC80 values of reference agonist. These were read for 180 seconds using the FLIPR^TETRA (This assay added reference agonist to respective wells-then fluorescences measurements were collected to calculate IC50 values). All plates were subjected to appropriate baseline corrections. Once baseline corrections were processed, maximum fluorescence values were exported and data manipulated to calculate percentage activation, percentage inhibition and Z′.

S1P5 receptor = S1P5 receptor (Homo sapiens (Human), UniProt Q9H228); assay: Antagonist assay (FLIPR TETRA, inhibition of reference agonist EC80) on S1P5; type: cell-based; details: tested as the citrate salt
Procedure: as §1, §2, §3, §4

[3] = Microsomal intrinsic clearance; details: mouse, liver microsomes, mouse microsomes, test conc. 1 μM

Sequence of S1P2 receptor (O95136 whole entry): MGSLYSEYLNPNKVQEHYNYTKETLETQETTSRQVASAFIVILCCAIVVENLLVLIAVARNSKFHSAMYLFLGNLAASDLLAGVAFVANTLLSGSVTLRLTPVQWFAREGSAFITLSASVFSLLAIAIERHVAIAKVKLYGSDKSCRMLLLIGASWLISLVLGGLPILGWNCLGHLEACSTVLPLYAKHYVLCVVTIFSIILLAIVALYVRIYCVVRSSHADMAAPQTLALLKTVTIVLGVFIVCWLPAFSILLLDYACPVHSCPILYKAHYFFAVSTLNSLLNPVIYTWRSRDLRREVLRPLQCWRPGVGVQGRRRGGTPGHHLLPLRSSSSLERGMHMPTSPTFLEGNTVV
Sequence of S1P5 receptor (Q9H228 whole entry): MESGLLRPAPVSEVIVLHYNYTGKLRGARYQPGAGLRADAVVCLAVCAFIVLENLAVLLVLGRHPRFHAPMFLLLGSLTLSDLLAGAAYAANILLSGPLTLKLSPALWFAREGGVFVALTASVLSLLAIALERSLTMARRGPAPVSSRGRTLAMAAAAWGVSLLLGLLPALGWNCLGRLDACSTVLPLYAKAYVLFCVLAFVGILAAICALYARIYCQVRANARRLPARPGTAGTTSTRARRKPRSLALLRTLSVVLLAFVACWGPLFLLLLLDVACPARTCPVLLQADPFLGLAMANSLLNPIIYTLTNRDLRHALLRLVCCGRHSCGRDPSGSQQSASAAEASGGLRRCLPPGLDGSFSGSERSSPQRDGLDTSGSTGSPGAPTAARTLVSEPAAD

CC(=O)CC(c1ccccc1)c1c(O)c2ccccc2oc1=O (stereo not drawn) [Warfarin, reference compound]
microsomal CLint at 1 μM (in vitro): 15 µL/min/mg | mean fraction bound (%) ([1]; mouse, 5 nM): 92.1%

C=CCn1nc(C)c2c(C(C)C)cc(NNC(=O)Nc3cc(Cl)nc(Cl)c3)nc21 [Compound 1]
AUC0-inf ([2]; mouse blood, individual mice): 92.4 ng·h/mL and 192 ng·h/mL | AUC0-inf Extrapolated ([2]; mouse blood, individual mice): 19.3% and 63.8% | AUC0-tlast ([2]; mouse blood, individual mice): 74.6 ng·h/mL and 69.5 ng·h/mL | AUMC0-inf ([2]; mouse blood, individual mice): 604 h^2*ng/mL and 9010 h^2*ng/mL | AUMC0-inf Extrapolated ([2]; mouse blood, individual mice): 74.1% and 98.2% | AUMC0-tlast ([2]; mouse blood, individual mice): 12.7 h^2*ng/mL and 157 h^2*ng/mL and 166 h^2*ng/mL | C0 ([2]; mouse blood, individual mice): 262 ng/mL and 251 ng/mL | CL ([2]; mouse blood, individual mice): 180 mL/min/kg and 86.7 mL/min/kg | MRT0-inf ([2]; mouse blood, individual mice): 6.53 h and 46.9 h | MRT0-tlast ([2]; mouse blood, individual mice): 0.236 h and 2.10 h and 2.39 h | Terminal half-life ([2]; mouse blood, individual mice): 9.08 h and 41.7 h | Vss ([2]; mouse blood, individual mice): 70.7 L/kg and 244 L/kg | AUC0-inf Extrapolated, Mean S.D. ([2]; mouse blood, mean): 41.5 (n = 2) % | AUMC0-inf Extrapolated, Mean S.D. ([2]; mouse blood, mean): 86.1 (n = 2) % | AUMC0-inf, Mean S.D. ([2]; mouse blood, mean): 4810 (n = 2) h^2*ng/mL | AUMC0-tlast, Mean S.D. ([2]; mouse blood, mean): 112 ± 86.0 h^2*ng/mL | C0, Mean S.D. ([2]; mouse blood, mean): 295 ± 66.2 ng/mL | Blood Concentrations ([2]; mouse, 5 min, individual mice, LLOQ = 1 ng/mL): 152 ng/mL and 143 ng/mL | Blood Concentrations ([2]; mouse, 0.25 h, individual mice, LLOQ = 1 ng/mL): 51.2 ng/mL and 46.3 ng/mL | Blood Concentrations ([2]; mouse, 0.5 h, individual mice, LLOQ = 1 ng/mL): 22.8 ng/mL and 17.1 ng/mL | Blood Concentrations ([2]; mouse, 1 h, individual mice, LLOQ = 1 ng/mL): 7.90 ng/mL and 6.44 ng/mL | Blood Concentrations ([2]; mouse, 2 h, individual mice, LLOQ = 1 ng/mL): 1.13 ng/mL and 3.12 ng/mL and 2.96 ng/mL | Blood Concentrations ([2]; mouse, 4 h, individual mice, LLOQ = 1 ng/mL): BLQ and 1.98 ng/mL | Blood Concentrations ([2]; mouse, 6 h, individual mice, LLOQ = 1 ng/mL): BLQ and 2.25 ng/mL | Blood Concentrations ([2]; mouse, 12 h, individual mice, LLOQ = 1 ng/mL): BLQ and 2.04 ng/mL | pharmacokinetics / blood levels following intravenous injection in mice (in words) ([2]; mouse): substantially improved pharmacokinetics | pharmacokinetics / blood levels following intravenous injection in mice (in words) ([2]; mouse, listed as compound 1): highest drug blood levels over time | AUC(0-t) ([2]; mouse, whole blood, iv, 1 mg/kg, mouse blood, individual mice, read-out: AUC0-tlast): 53.9 ng·h/mL | C0 ([2]; mouse, whole blood, iv, 1 mg/kg, mouse blood, individual mice, read-out: C0): 371 ng/mL | AUC0-inf ([2]; mouse, whole blood, iv, 1 mg/kg, mouse blood, mean, read-out: AUC0-inf, Mean S.D.): 142 ng·h/mL | AUC(0-t) ([2]; mouse, whole blood, iv, 1 mg/kg, mouse blood, mean, read-out: AUC0-tlast, Mean S.D.): 66 ± 10.8 ng·h/mL | clearance ([2]; mouse, whole blood, iv, 1 mg/kg, mouse blood, mean, read-out: CL, Mean S.D. (converted)): 134 mL/min/kg | MRT inf ([2]; mouse, whole blood, iv, 1 mg/kg, mouse blood, mean, read-out: MRT0-inf, Mean S.D.): 26.7 h | MRT last ([2]; mouse, whole blood, iv, 1 mg/kg, mouse blood, mean, read-out: MRT0-tlast, Mean S.D.): 1.58 h | half-life ([2]; mouse, whole blood, iv, 1 mg/kg, mouse blood, mean, read-out: Terminal half-life, Mean S.D. (converted)): 25.4 h | Vd ([2]; mouse, whole blood, iv, 1 mg/kg, mouse blood, mean, read-out: Vss, Mean S.D.): 157 L/kg | concentration at 5 min ([2]; mouse, whole blood, iv, 1 mg/kg, mouse, 5 min, individual mice, LLOQ = 1 ng/mL, read-out: Blood Concentrations): 188 ng/mL | concentration at 5 min ([2]; mouse, whole blood, iv, 1 mg/kg, mouse, 5 min, mean of 3 mice, read-out: Blood Concentrations, Mean S.D.): 161 ± 23.8 ng/mL | concentration at 0.25 h ([2]; mouse, whole blood, iv, 1 mg/kg, mouse, 0.25 h, individual mice, LLOQ = 1 ng/mL, read-out: Blood Concentrations): 48.3 ng/mL | concentration at 0.25 h ([2]; mouse, whole blood, iv, 1 mg/kg, mouse, 0.25 h, mean of 3 mice, read-out: Blood Concentrations, Mean S.D.): 48.6 ± 2.46 ng/mL | concentration at 0.5 h ([2]; mouse, whole blood, iv, 1 mg/kg, mouse, 0.5 h, individual mice, LLOQ = 1 ng/mL, read-out: Blood Concentrations): 14.9 ng/mL | concentration at 0.5 h ([2]; mouse, whole blood, iv, 1 mg/kg, mouse, 0.5 h, mean of 3 mice, read-out: Blood Concentrations, Mean S.D.): 18.3 ± 4.08 ng/mL | concentration at 1 h ([2]; mouse, whole blood, iv, 1 mg/kg, mouse, 1 h, individual mice, LLOQ = 1 ng/mL, read-out: Blood Concentrations): 5.11 ng/mL | concentration at 1 h ([2]; mouse, whole blood, iv, 1 mg/kg, mouse, 1 h, mean of 3 mice, read-out: Blood Concentrations, Mean S.D.): 6.48 ± 1.4 ng/mL | concentration at 2 h ([2]; mouse, whole blood, iv, 1 mg/kg, mouse, 2 h, mean of 3 mice, read-out: Blood Concentrations, Mean S.D.): 2.4 ± 1.11 ng/mL | concentration at 4 h ([2]; mouse, whole blood, iv, 1 mg/kg, mouse, 4 h, individual mice, LLOQ = 1 ng/mL, read-out: Blood Concentrations): 2.22 ng/mL | concentration at 4 h ([2]; mouse, whole blood, iv, 1 mg/kg, mouse, 4 h, mean (n = 2 for Cmpd-1), read-out: Blood Concentrations, Mean S.D.): 2.1 ng/mL | concentration at 6 h ([2]; mouse, whole blood, iv, 1 mg/kg, mouse, 6 h, individual mice, LLOQ = 1 ng/mL, read-out: Blood Concentrations): 2.55 ng/mL | concentration at 6 h ([2]; mouse, whole blood, iv, 1 mg/kg, mouse, 6 h, mean (n = 2 for Cmpd-1), read-out: Blood Concentrations, Mean S.D.): 2.4 ng/mL | concentration at 12 h ([2]; mouse, whole blood, iv, 1 mg/kg, mouse, 12 h, individual mice, LLOQ = 1 ng/mL, read-out: Blood Concentrations): 1.36 ng/mL | concentration at 12 h ([2]; mouse, whole blood, iv, 1 mg/kg, mouse, 12 h, mean (n = 2 for Cmpd-1), read-out: Blood Concentrations, Mean S.D.): 1.7 ng/mL | mean fraction bound (%) ([1]; mouse plasma, test concentration 5 nM): 99.9% | IC50 (S1P2 receptor): 1.2 nM | IC50 (S1P5 receptor): 2.2 nM | microsomal CLint at 1 μM ([3]; NADPH-dependent Clint (microsomal intrinsic clearance)): 1170 µL/min/mg | half-life at 1 μM ([3]; NADPH-dependent T1/2 (half-life)): 0.0333 h | microsomal CLint at 1 μM ([3]; NADPH-free Clint (microsomal intrinsic clearance)): 48 µL/min/mg | half-life at 1 μM ([3]; NADPH-free T1/2 (half-life)): 0.8 h
